Data on 17 molecules can be found in patent publication US6635670B2, “sPLA2 inhibitors” (Eli Lilly and Company, priority 1999, dated 2003).

The first assay addresses T1, recombinant human secreted phospholipase A2 (Homo sapiens, UniProt P14555).
T1 sequence (P14555 21-144): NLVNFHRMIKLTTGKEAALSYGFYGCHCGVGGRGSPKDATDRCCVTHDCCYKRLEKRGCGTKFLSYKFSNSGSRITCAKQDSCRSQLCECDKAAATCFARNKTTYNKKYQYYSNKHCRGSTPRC
The assay is described as follows: chromogenic assay for inhibitors of recombinant human secreted phospholipase A2.
Settings: not given
It is filed as biochemical. The source says: The following chromogenic assay procedure was used to identify and evaluate inhibitors of recombinant human secreted phospholipase A2. The assay described herein has been adapted for high volume screening using 96 well microtiter plates. A general description of this assay method is found in the article, “Analysis of Human Synovial Fluid Phospholipase A2 on Short Chain Phosphatidylcholine-Mixed Micelles: Development of a Spectrophotometric Assay Suitable for a Microtiterplate Reader”, by Laure J. Reynolds, Lori L. Hughes, and Edward A Dennis, Analytical Biochemistry, 204, pp. 190-197, 1992 (the disclosure of which is incorporated herein by reference):
REACTION BUFFER —CaCl2. 2H2O (1.47 g/L) KCl (7.455 g/L) Bovine Serum Albumin (fatty acid free) (1 g/L) (Sigma A-7030, product of Sigma Chemical Co., St. Louis Mo., USA) TRIS HCl (3.94 g/L) pH 7.5 (adjust with NaOH)
ENZYME BUFFER-0.05 NaOAc.3H2O, pH 4.5 0.2 NaCl Adjust pH to 4.5 with acetic acid DTNB-5,5′-dithiobis-2-nitrobenzoic acid
RACEMIC DIHEPTANOYL THIO-PC racemic 1,2-bis(heptanoylthio)-1,2-dideoxy-sn-glycero-3-phosphorylcholine TRITON X-100™ prepare at 6.249 mg/ml in reaction buffer to equal […].
A measured volume of racemic dipheptanoyl thio PC supplied in chloroform at a concentration of 100 mg/ml is taken to dryness and redissolved in 10 millimolar
TRITON X-100™ nonionic detergent aqueous solution.
Reaction Buffer is added to the solution, then DTNB to give the Reaction Mixture.
The reaction mixture thus obtained contains 1 mM diheptanoly thio-PC substrate, 0.29 mm Triton X-100™ detergent, and 0.12 mm DTMB in a buffered aqueous solution at pH 7.5.
1. Add 0.2 ml reaction mixture to all wells;
2. Add 10 ul test compound (or solvent blank) to appropriate wells, mix 20 seconds;
3. Add 50 nanograms of sPLA2 (10 microliters) to appropriate wells;
4. Incubate plate at 40° C. for 30 minutes;
5. Read absorbance of wells at 405 nanometers with an automatic plate reader.
All compounds were tested in triplicate. Typically, compounds were tested at a final concentration of 5 ug/ml. […] Lack of color development at 405 nanometers evidenced inhibition. Compounds initially found to be active were reassayed to confirm their activity and, if sufficiently active, IC50 values were determined. […] In all cases, % inhibition measured at 405 nanometers generated by enzyme reactions containing inhibitors relative to the uninhibited control reactions was determined. Each sample was titrated in triplicate and result values were averaged for plotting and calculation of IC50 values. IC50 were determined by plotting log concentration versus inhibition values in the range from 10-90% inhibition.
A word on the IC50: it is the point on the concentration scale where inhibition reaches its midpoint. Consider `CCc1c(C(=O)C(N)=O)c2c(OCC(=O)OC)cccc2n1Cc1ccccc1` [Compound 1, [[3-(2-Amino-1,2-dioxoethyl)-2-ethyl-1-(phenylmethyl)-1H-indol-4-yl]oxy]acetic acid methyl ester], for which the IC50 was 49 nM.

Still in this assay, the particulars now being: diheptanoyl thio-PC substrate, pH 7.5, 40° C. for 30 minutes, absorbance at 405 nanometers; read-out: Inhibition of human secreted PLA2 IC50 ± mean deviation (3-4 tests).
Turning to `CCc1c(C(=O)C(N)=O)c2c(OCC(=O)N[C@@H](CC(=O)O)C(=O)O)cccc2n1Cc1ccccc1` [Compound 3D, N-[2-[[3-(Aminooxoacetyl)-2-ethyl-1-(phenylmethyl)-1H-indol-4-yl]oxy]acetyl]-L-aspartic Acid], the IC50 worked out at 132 nM.

`CCc1c(C(=O)C(N)=O)c2c(OCC(=O)N[C@@H](CC(=O)OC)C(=O)OC)cccc2n1Cc1ccccc1` [Compound 2D, N-[2-[[3-(Aminooxoacetyl)-2-ethyl-1-(phenylmethyl)-1H-indol-4-yl]oxy]acetyl]-L-aspartic Acid Dimethyl Ester]: the IC50 worked out at 874 nM.

Regarding `CCc1c(C(=O)C(N)=O)c2c(OCC(=O)NC(C(=O)OC)C(=O)OC)cccc2n1Cc1ccccc1` [Compound 2F, [2-[[3-(Aminooxoacetyl)-2-ethyl-1-(phenylmethyl)-1H-indol-4-yl]oxy]acetamido]malonic Acid Dimethyl Ester], the IC50 is 698 nM.

On to `CCc1c(C(=O)C(N)=O)c2c(OCC(=O)N[C@@H](C)C(=O)O)cccc2n1Cc1ccccc1` [Compound 3B, N-[2-[[3-(Aminooxoacetyl)-2-ethyl-1-(phenylmethyl)-1H-indol-4-yl]oxy]acetyl]-L-alanine], for which the IC50 came to 59 nM.

For the molecule `CCc1c(C(=O)C(N)=O)c2c(OCC(=O)NCC(=O)O)cccc2n1Cc1ccccc1` [Compound 3A, N-[2-[[3-(Aminooxoacetyl)-2-ethyl-1-(phenylmethyl)-1H-indol-4-yl]oxy]acetyl]glycine], the half-inhibitory concentration (IC50) amounted to 71 nM.

For `CCc1c(C(=O)C(N)=O)c2c(OCC(=O)N[C@@H](Cc3ccccc3)C(=O)O)cccc2n1Cc1ccccc1` [Compound 3E, N-[2-[[3-(Aminooxoacetyl)-2-ethyl-1-(phenylmethyl)-1H-indol-4-yl]oxy]acetyl]-L-phenylalanine], the IC50 turned out to be 64 nM.

As to `CCc1c(C(=O)C(N)=O)c2c(OCC(=O)N[C@H](C(=O)OC)[C@@H](C)CC)cccc2n1Cc1ccccc1` [Compound 2H, N-[2-[[3-(Aminooxoacetyl)-2-ethyl-1-(phenylmethyl)-1H-indol-4-yl]oxy]acetyl]-L-isoleucine Methyl Ester], the IC50 turned out to be 166 nM.

Take `CCc1c(C(=O)C(N)=O)c2c(OCC(=O)N[C@H](C(=O)OC)C(C)C)cccc2n1Cc1ccccc1` [Compound 2G, N-[2-[[3-(Aminooxoacetyl)-2-ethyl-1-(phenylmethyl)-1H-indol-4-yl]oxy]acetyl]-L-valine Methyl Ester]: the IC50 was determined as 283 nM.

As to `CCc1c(C(=O)C(N)=O)c2c(OCC(=O)N[C@@H](C)C(=O)OC)cccc2n1Cc1ccccc1` [Compound 2B, N-[2-[[3-(Aminooxoacetyl)-2-ethyl-1-(phenylmethyl)-1H-indol-4-yl]oxy]acetyl]-L-alanine Methyl Ester], the IC50 worked out at 533 nM.

For `CCc1c(C(=O)C(N)=O)c2c(OCC(=O)N[C@@H](Cc3ccccc3)C(=O)OC)cccc2n1Cc1ccccc1` [Compound 2E, N-[2-[[3-(Aminooxoacetyl)-2-ethyl-1-(phenylmethyl)-1H-indol-4-yl]oxy]acetyl]-L-phenylalanine Methyl Ester], the IC50 turned out to be 666 nM.

As to `CCc1c(C(=O)C(N)=O)c2c(OCC(=O)N[C@@H](CC(C)C)C(=O)O)cccc2n1Cc1ccccc1` [Compound 3C, N-[2-[[3-(Aminooxoacetyl)-2-ethyl-1-(phenylmethyl)-1H-indol-4-yl]oxy]acetyl]-L-leucine], the IC50 came to 28 nM.

With `CCc1c(C(=O)C(N)=O)c2c(OCC(=O)NC(C(=O)O)C(=O)O)cccc2n1Cc1ccccc1` [Compound 3F, [2-[[3-(Aminooxoacetyl)-2-ethyl-1-(phenylmethyl)-1H-indol-4-yl]oxy]acetamido]malonic Acid], the concentration for half-maximal inhibition (IC50) was 44.7 nM.

For `CCc1c(C(=O)C(N)=O)c2c(OCC(=O)NCC(=O)OC)cccc2n1Cc1ccccc1` [Compound 2A, N-[2-[[3-(Aminooxoacetyl)-2-ethyl-1-(phenylmethyl)-1H-indol-4-yl]oxy]acetyl]glycine Methyl Ester], the IC50 was found to be 529 nM.

On to `CCc1c(C(=O)C(N)=O)c2c(OCC(=O)N[C@H](C(=O)O)C(C)C)cccc2n1Cc1ccccc1` [Compound 3G, N-[2-[[3-(Aminooxoacetyl)-2-ethyl-1-(phenylmethyl)-1H-indol-4-yl]oxy]acetyl]-L-valine], for which the IC50 came to 36.4 nM.

In the case of `CCc1c(C(=O)C(N)=O)c2c(OCC(=O)N[C@@H](CC(C)C)C(=O)OC)cccc2n1Cc1ccccc1` [Compound 2C, N-[2-[[3-(Aminooxoacetyl)-2-ethyl-1-(phenylmethyl)-1H-indol-4-yl]oxy]acetyl]-L-leucine Methyl Ester], the IC50 came to 82 nM.

Regarding `CCc1c(C(=O)C(N)=O)c2c(OCC(=O)N[C@H](C(=O)O)[C@@H](C)CC)cccc2n1Cc1ccccc1` [Compound 3H, N-[2-[[3-(Aminooxoacetyl)-2-ethyl-1-(phenylmethyl)-1H-indol-4-yl]oxy]acetyl]-L-isoleucine], the IC50 came out at 25.1 nM.

The assay is the same for the next values; noted with them: statement in words.
As to `CCc1c(C(=O)C(N)=O)c2c(OCC(=O)OC)cccc2n1Cc1ccccc1` [Compound 1, [[3-(2-Amino-1,2-dioxoethyl)-2-ethyl-1-(phenylmethyl)-1H-indol-4-yl]oxy]acetic acid methyl ester], the “activity in inhibiting SPLA2” value is on record as “highly active”.
